The text below walks through data of patent publication US8273768B2, “Iso CA-4 and analogues thereof as potent cytotoxic agents inhibiting tubuline polymerization” (Centre National de la Recherche Scientifique (CNRS), priority 2007, dated 2012).

The target of the assay is T1, purified tubulin from pig brains (Sus scrofa, UniProt P02550+P02554).
T1 construct: from pig brains, where it forms 20-25% of the soluble proteins; from tissue; host or cells: pig brain
Description: Inhibition of polymerization of tubulin (turbidimetry). The assay is classed as biochemical. As to conditions: pig brain tubulin, turbidimetry at 350 nm. On the procedure:
Tests relating to the inhibition of polymerization of tubulin were carried out on compounds which had the best cytotoxic activities. These tests were carried out on purified tubulin by the Shelanski method (Shelanski, M. C.; Gaskin, F.; Cantor, C. R. Proc. Natl. Acad. Sci. USA, 1973, 70, 765-768) from pig brains, where it forms 20-25% of the soluble proteins. Purification method is based on temperature-dependent assembling-disassembling cycles. Polymerization of tubulin was tracked with turbidimetry according to the Gaskin method (Gaskin, F.; Cantor, C. R.; Shelanski, M. L. J. Bio. Mol. 1974, 89, 737) at a wavelength of 350 nm. The different samples were dissolved in DMSO and incubated for 10 minutes at 37° C. and then for 5 minutes at 0° C.
The CA-4 compound and DMSO were taken as references.
The tests have shown for these compounds an activity inhibiting polymerization of tubulin similar to the one of the reference compound CA-4 (of the order of only one micromolar concentration to a few tens of micromolar concentrations).

T1 sequence (P02554 whole entry): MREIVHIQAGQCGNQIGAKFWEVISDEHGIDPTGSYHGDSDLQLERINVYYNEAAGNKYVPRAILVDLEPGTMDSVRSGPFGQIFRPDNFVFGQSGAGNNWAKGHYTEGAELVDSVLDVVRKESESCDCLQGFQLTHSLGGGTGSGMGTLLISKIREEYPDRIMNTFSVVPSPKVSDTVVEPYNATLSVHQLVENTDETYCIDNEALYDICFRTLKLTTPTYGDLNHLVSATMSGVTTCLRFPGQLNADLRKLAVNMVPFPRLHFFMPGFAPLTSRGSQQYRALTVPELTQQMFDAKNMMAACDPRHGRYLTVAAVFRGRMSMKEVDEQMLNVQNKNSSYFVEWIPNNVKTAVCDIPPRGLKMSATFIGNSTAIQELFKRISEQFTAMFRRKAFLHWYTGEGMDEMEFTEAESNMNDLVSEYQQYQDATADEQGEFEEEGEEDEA
T1 sequence (P02550 whole entry): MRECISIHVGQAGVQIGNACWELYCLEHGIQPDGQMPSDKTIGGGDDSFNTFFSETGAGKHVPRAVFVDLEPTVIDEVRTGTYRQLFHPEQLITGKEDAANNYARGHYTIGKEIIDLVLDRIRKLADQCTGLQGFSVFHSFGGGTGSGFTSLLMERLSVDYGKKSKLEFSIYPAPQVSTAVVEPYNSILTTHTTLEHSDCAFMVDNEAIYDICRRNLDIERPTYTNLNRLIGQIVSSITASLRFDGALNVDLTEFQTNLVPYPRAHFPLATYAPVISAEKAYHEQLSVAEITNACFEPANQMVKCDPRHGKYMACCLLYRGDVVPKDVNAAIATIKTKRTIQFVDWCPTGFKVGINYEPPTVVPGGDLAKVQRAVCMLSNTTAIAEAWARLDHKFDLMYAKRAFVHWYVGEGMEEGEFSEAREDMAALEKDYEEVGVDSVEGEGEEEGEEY

Take `C=C(c1ccc(OC)c(O)c1)c1cc(OC)c(OC)c(OC)c1` [(I-1)]: the IC50 worked out at 2200 nM.
